Experimental data: US8252737B2, “Antimicrobial peptides and methods of use” (priority 2004, dated 2012)
Values after ≈ are worked out from the molar mass of the structure shown. Square brackets hold non-standard residues; d marks the D form. Peptide text beside a SMILES is read from it.

Tests used:
[1] = RP-HPLC temperature profiling (hydrophobicity and self-association/dimerization parameter PA); format: physicochemical; conditions: for tR (min) 5° C.: RP-HPLC retention time at 5° C. during temperature profiling (measure of hydrophobicity); for tR (min) 80° C.: RP-HPLC retention time at 80° C. during temperature profiling; for tR (min) Max: maximal RP-HPLC retention time during temperature profiling 5-80° C.; for PA (min) association parameter: maximal retention time difference relative to control peptide C within 5-80° C.; for ΔtR (X-NVL) (min) 5° C.: retention time difference relative to native peptide V681 (NVL) at 5° C.; for ΔtR (X-NVL) (min) 5° C. / ΔtR (X-NVL) (min) 80° C. / ΔtR (X-PSL) (min) 5° C. / ΔtR (X-PSL) (min) 80° C.: relative hydrophobicity; for ΔtR (X-NVL) (min) 80° C.: retention time difference relative to native peptide V681 (NVL) at 80° C.; for ΔtR (X-PSL) (min) 5° C. / ΔtR (X-PSL) (min) 80° C.: polar face substitutions; for ΔtR (X-PSL) (min) 5° C.: retention time difference relative to native peptide V681 (PSL) at 5° C.; for ΔtR (X-PSL) (min) 80° C.: retention time difference relative to native peptide V681 (PSL) at 80° C.
Outline: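 RP-HPLC retention times recorded over temperature profiling from 5°C to 80°C, with retention relative to native V681 at each limit used as hydrophobicity. Self-association parameter PA defined as the maximal change in retention time from 5°C, after subtracting that of monomeric random-coil control peptide C.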

[2] = tested on: gram-negative bacteria; assay: MIC, microtiter dilution, Gram-negative bacteria (geometric mean of 6 strains); format: cell-based; conditions: for MIC (μg/ml) Gram-negative: geometric mean MIC, Table 9
Experimental: The geometric mean MIC values from 6 microbial strains in this table were calculated to provide an overall evaluation of antimicrobial activity against gram-negative bacteria.
In Table 11, geometric mean MIC was calculated to provide an overall view of antimicrobial activity of the peptides against Gram-negative bacteria and was also used to calculate the therapeutic index.
Measurement of Antimicrobial Activity—Minimal inhibitory concentrations (MICs) were determined using a standard microtiter dilution method in LB (Luria-Bertani) no-salt medium (10 g of tryptone and 5 g of yeast extract per liter). Briefly, cells were grown overnight at 37° C. in LB and diluted in the same medium. […] Plates were incubated at 37° C. for 24 hours and MICs determined as the lowest peptide concentration that inhibited growth. Alternatively, minimal inhibitory concentrations were determined using a standard microtiter dilution method in a Mueller-Hinton (MH) medium. Briefly, cells were grown overnight at 37° C. in MH broth and diluted in the same medium. […] Plates were incubated at 37° C. for 24 hours and MICs determined as the lowest peptide concentration that inhibited growth. However, for MIC determination of Pseudomonas aeruginosa clinical isolates, brain heart infusion (BH1) medium was used instead of MH broth. In addition, the bacteria were diluted to a final inoculum of 1×10^6 colony-forming units/ml.

Row | Structure (SMILES) | tR (min) 5° C. [1] | tR (min) 80° C. [1] | decrease in hydrophobicity relative to NVL (V681) ([1]; RP-HPLC retention time difference at 80° C., non-polar face substitutions) | tR (min) Max [1] | PA (min) association parameter [1] | ΔtR (X-NVL) (min) 5° C. ([1]; non-polar face substitutions) | ΔtR (X-NVL) (min) 80° C. ([1]; non-polar face substitutions) | MIC (μg/ml) Gram-negative [2] | ΔtR (X-PSL) (min) 5° C. [1] | ΔtR (X-PSL) (min) 80° C. [1] | fold improvement on the average MIC compared to V681 ([2]; gram-negative bacteria, geometric mean comparison, Table 7)
1 | CC[C@H](C)[C@H](NC(=O)[C@H](C)NC(=O)[C@H](CCCCN)NC(=O)[C@H](CC(C)C)NC(=O)[C@H](C)NC(=O)[C@@H](NC(=O)[C@H](Cc1c[nH]cn1)NC(=O)[C@H](CC(C)C)NC(=O)[C@@H](NC(=O)[C@@H](NC(=O)[C@H](CCCCN)NC(=O)[C@H](C)NC(=O)[C@H](C)NC(=O)[C@H](CO)NC(=O)[C@H](CCCCN)NC(=O)[C@H](Cc1ccccc1)NC(=O)[C@@H](NC(=O)[C@H](CCCCN)NC(=O)[C@H](CC(C)C)NC(=O)[C@H](Cc1ccccc1)NC(=O)[C@H](CO)NC(=O)[C@H](CCCCN)NC(=O)[C@H](Cc1c[nH]c2ccccc12)NC(=O)[C@H](CCCCN)NC(C)=O)[C@@H](C)O)[C@@H](C)O)C(C)C)[C@@H](C)O)C(=O)N[C@@H](CO)C(=O)N[C@@H](CO)C(N)=O [NAL] | 43.94 min | 41.38 min | -4.45 min | 44.88 min | 2.59 min | -4.16 min | -4.45 min | 3.8 µg/mL (≈ 1.3 µM) |  |  | 
2 | CC[C@H](C)[C@H](NC(=O)[C@H](C)NC(=O)[C@H](CCCCN)NC(=O)[C@H](CC(C)C)NC(=O)[C@H](C)NC(=O)[C@@H](NC(=O)[C@H](Cc1c[nH]cn1)NC(=O)[C@H](CC(C)C)NC(=O)[C@@H](NC(=O)[C@@H](NC(=O)[C@H](CCCCN)NC(=O)[C@@H](CCCCN)NC(=O)[C@H](C)NC(=O)[C@H](CO)NC(=O)[C@H](CCCCN)NC(=O)[C@H](Cc1ccccc1)NC(=O)[C@@H](NC(=O)[C@H](CCCCN)NC(=O)[C@H](CC(C)C)NC(=O)[C@H](Cc1ccccc1)NC(=O)[C@H](CO)NC(=O)[C@H](CCCCN)NC(=O)[C@H](Cc1c[nH]c2ccccc12)NC(=O)[C@H](CCCCN)NC(C)=O)[C@@H](C)O)[C@@H](C)O)C(C)C)[C@@H](C)O)C(=O)N[C@@H](CO)C(=O)N[C@@H](CO)C(N)=O [NKD] | 34.05 min | 30.96 min |  | 34.05 min | 1.10 min | -14.05 min | -14.87 min | 7.7 µg/mL (≈ 2.57 µM) |  |  | 
3 | CC[C@H](C)[C@H](NC(=O)[C@H](C)NC(=O)[C@H](CCCCN)NC(=O)[C@H](CC(C)C)NC(=O)[C@H](C)NC(=O)[C@@H](NC(=O)[C@H](Cc1c[nH]cn1)NC(=O)[C@H](CC(C)C)NC(=O)[C@@H](NC(=O)[C@@H](NC(=O)[C@H](CCCCN)NC(=O)[C@@H](CO)NC(=O)[C@H](C)NC(=O)[C@H](CO)NC(=O)[C@H](CCCCN)NC(=O)[C@H](Cc1ccccc1)NC(=O)[C@@H](NC(=O)[C@H](CCCCN)NC(=O)[C@H](CC(C)C)NC(=O)[C@H](Cc1ccccc1)NC(=O)[C@H](CO)NC(=O)[C@H](CCCCN)NC(=O)[C@H](Cc1c[nH]c2ccccc12)NC(=O)[C@H](CCCCN)NC(C)=O)[C@@H](C)O)[C@@H](C)O)C(C)C)[C@@H](C)O)C(=O)N[C@@H](CO)C(=O)N[C@@H](CO)C(N)=O [NSD] (Ac-KWKSFLKTFKSA[dS]KTVLHTALKAISS-NH2) | 37.02 min | 34.08 min |  | 37.12 min | 1.46 min | -11.08 min | -11.75 min | 6.3 µg/mL (≈ 2.14 µM) |  |  | 
4 | CC[C@H](C)[C@H](NC(=O)[C@H](C)NC(=O)[C@H](CCCCN)NC(=O)[C@H](CC(C)C)NC(=O)[C@H](C)NC(=O)[C@@H](NC(=O)[C@H](Cc1c[nH]cn1)NC(=O)[C@H](CC(C)C)NC(=O)[C@@H](NC(=O)[C@@H](NC(=O)[C@H](CCCCN)NC(=O)[C@H](NC(=O)[C@H](C)NC(=O)[C@H](CO)NC(=O)[C@H](CCCCN)NC(=O)[C@H](Cc1ccccc1)NC(=O)[C@@H](NC(=O)[C@H](CCCCN)NC(=O)[C@H](CC(C)C)NC(=O)[C@H](Cc1ccccc1)NC(=O)[C@H](CO)NC(=O)[C@H](CCCCN)NC(=O)[C@H](Cc1c[nH]c2ccccc12)NC(=O)[C@H](CCCCN)NC(C)=O)[C@@H](C)O)C(C)C)[C@@H](C)O)C(C)C)[C@@H](C)O)C(=O)N[C@@H](CO)C(=O)N[C@@H](CO)C(N)=O [NVD] | 42.55 min | 40.15 min |  | 43.43 min | 2.63 min | -5.55 min | -5.68 min | 3.3 µg/mL (≈ 1.11 µM) |  |  | 
5 | CC[C@H](C)[C@H](NC(=O)[C@H](C)NC(=O)[C@H](CCCCN)NC(=O)[C@H](CC(C)C)NC(=O)[C@H](C)NC(=O)[C@@H](NC(=O)[C@H](Cc1c[nH]cn1)NC(=O)[C@H](CC(C)C)NC(=O)[C@@H](NC(=O)[C@@H](NC(=O)[C@H](CCCCN)NC(=O)[C@@H](NC(=O)[C@H](C)NC(=O)[C@@H](C)NC(=O)[C@H](CCCCN)NC(=O)[C@H](Cc1ccccc1)NC(=O)[C@@H](NC(=O)[C@H](CCCCN)NC(=O)[C@H](CC(C)C)NC(=O)[C@H](Cc1ccccc1)NC(=O)[C@H](CO)NC(=O)[C@H](CCCCN)NC(=O)[C@H](Cc1c[nH]c2ccccc12)NC(=O)[C@H](CCCCN)NC(C)=O)[C@@H](C)O)C(C)C)[C@@H](C)O)C(C)C)[C@@H](C)O)C(=O)N[C@@H](CO)C(=O)N[C@@H](CO)C(N)=O [PAD] (Ac-KWKSFLKTFK[dA]AVKTVLHTALKAISS-NH2) | 45.19 min | 42.57 min |  | 46.36 min | 2.82 min |  |  | 4.3 µg/mL (≈ 1.46 µM) | -2.91 min | -3.26 min | 
6 | CC[C@H](C)[C@H](NC(=O)[C@H](C)NC(=O)[C@H](CCCCN)NC(=O)[C@H](CC(C)C)NC(=O)[C@H](C)NC(=O)[C@@H](NC(=O)[C@H](Cc1c[nH]cn1)NC(=O)[C@H](CC(C)C)NC(=O)[C@@H](NC(=O)[C@@H](NC(=O)[C@H](CCCCN)NC(=O)[C@@H](NC(=O)[C@H](C)NC(=O)[C@@H](CCCCN)NC(=O)[C@H](CCCCN)NC(=O)[C@H](Cc1ccccc1)NC(=O)[C@@H](NC(=O)[C@H](CCCCN)NC(=O)[C@H](CC(C)C)NC(=O)[C@H](Cc1ccccc1)NC(=O)[C@H](CO)NC(=O)[C@H](CCCCN)NC(=O)[C@H](Cc1c[nH]c2ccccc12)NC(=O)[C@H](CCCCN)NC(C)=O)[C@@H](C)O)C(C)C)[C@@H](C)O)C(C)C)[C@@H](C)O)C(=O)N[C@@H](CO)C(=O)N[C@@H](CO)C(N)=O [PKD] (Ac-KWKSFLKTFK[dK]AVKTVLHTALKAISS-NH2) | 42.20 min | 39.29 min |  | 42.87 min | 2.23 min |  |  | 2.6 µg/mL (≈ 0.866 µM) | -5.90 min | -6.54 min | 3.4
7 | CC[C@H](C)[C@H](NC(=O)[C@H](C)NC(=O)[C@H](CCCCN)NC(=O)[C@H](CC(C)C)NC(=O)[C@H](C)NC(=O)[C@@H](NC(=O)[C@H](Cc1c[nH]cn1)NC(=O)[C@H](CC(C)C)NC(=O)[C@@H](NC(=O)[C@@H](NC(=O)[C@H](CCCCN)NC(=O)[C@@H](NC(=O)[C@H](C)NC(=O)[C@@H](CC(C)C)NC(=O)[C@H](CCCCN)NC(=O)[C@H](Cc1ccccc1)NC(=O)[C@@H](NC(=O)[C@H](CCCCN)NC(=O)[C@H](CC(C)C)NC(=O)[C@H](Cc1ccccc1)NC(=O)[C@H](CO)NC(=O)[C@H](CCCCN)NC(=O)[C@H](Cc1c[nH]c2ccccc12)NC(=O)[C@H](CCCCN)NC(C)=O)[C@@H](C)O)C(C)C)[C@@H](C)O)C(C)C)[C@@H](C)O)C(=O)N[C@@H](CO)C(=O)N[C@@H](CO)C(N)=O [PLD] (Ac-KWKSFLKTFK[dL]AVKTVLHTALKAISS-NH2) | 44.73 min | 42.14 min |  | 45.85 min | 2.82 min |  |  | 5.0 µg/mL (≈ 1.67 µM) | -3.37 min | -3.69 min | 
